Measurements reported in patent publication US20060134197A1, “Method of reducing unpleasant taste and/or unpleasant odor” (priority 2002, published 2006).

Key:
[1] = Inhibiting the production of hydrogen sulfide from chicken egg due to heat-decomposition; conditions: 10 g egg solution and 5 g saccharide in 50 ml, pH 7.0; 80° C. for 60 minutes; 100 minus relative value, control defined as 100
Description: Ten grams of an egg solution prepared by mixing a commercialized chicken egg with an equal weight of deionized water, and on a dry solid basis 5 g of a precisely measured saccharide sample; i.e. hydrous crystalline α,α-trehalose (food grade, purity 97.0% or more, commercialized by Hayashibara Biochemical Laboratories, Inc., Okayama, Japan), sucrose (a commercialized granulated sugar), a syrup containing saccharide derivatives of α,α-trehalose prepared in the following Example 1, or a syrup containing saccharide derivatives of α,α-trehalose prepared in the following Example 6 (hereinafter, it is called as “hydrogenated syrup containing saccharide derivatives containing α,α-trehalose”); were placed in a 50-ml volume measuring flask, and admixed with 5 ml of 500 mM phosphate buffer (pH 7.0) and deionized water to give a final volume of 50 ml. As a control, 10 g of an egg solution was admixed with deionized water to give a final volume of 50 ml. Five milliliters of each of the samples was placed into a 20-ml volume vial, sealed with a butyl gum cap, and kept at 80° C. for 60 minutes in an incubator. Hydrogen sulfide contained in 10 ml of the resulting headspace gas was measured by “[…] […] And then, the relative rate of inhibiting the production of hydrogen sulfide was calculated by 100 minus the relative value.

[2] = Inhibiting the production of amines from heated minced mackerel (headspace GC); conditions: minced mackerel with 5% saccharide solution; for Relative rate of inhibiting the production of dimethylamine / Relative rate of inhibiting the production of trimethylamine: headspace gas; for Relative rate of inhibiting the production of total amine: trimethylamine plus dimethylamine
Protocol: Five grams of minced mackerel, prepared by mincing commercialized mackerel without head part, internal organs and bone with a mincer to homogeneity, was placed in a 20-ml vial, and admixed with 5 ml of an aqueous solution containing on a dry solid basis 5% of “TREHA®”, a food grade hydrous α,α-trehalose commercialized by Hayashibara Biochemical laboratories, Inc., Okayama, Japan (purity 99.0% or more), sucrose (a commercialized granulated sugar), or a syrupy saccharide mixture containing saccharide derivatives of α,α-trehalose prepared in Example 1. The resulting vials were sealed with a butyl gum cap to prepare test samples. As a control, a vial containing 5 g of the minced mackerel and 5 ml of deionized water was sealed with a butyl gum cap for a control sample. These samples were heated in boiled water for 15 minutes, cooled in running water, and heated at 80° C. for five minutes. The resulting headspace gas was taken from each of the vials and allowed to measure the contents of amines, hydrogen sulfide and aldehydes.
Measurement of the content of amines was carried out by subjecting 2 ml of the headspace gas to analysis by GC-14B gas chromatography, a hydrogen flame ionizing detector commercialized by Shimazu Co., Ltd., Kyoto, Japan, with flowing helium gas as a carrier gas at a flow rate of 1 ml/minute, and using DB-5 capillary column, 30 m in length and 0.25 mm in internal diameter (df=0.25 μm, sprit rate 1/30), commercialized by J & W Company, with an increasing column temperature from 40° C. to 250° C. at a rate of 5° C./minute. The amount of total amine was calculated by totalizing the amount of trimethylamine and dimethylamine.
The values of the production of amines, hydrogen sulfide and aldehydes of each test sample were compared with the value of control defined as 100 to calculate the relative values thereof. And then, the relative rates of inhibiting the production of amines, hydrogen sulfide and aldehydes were respectively calculated by 100 minus each of the relative values.

[3] = Inhibiting the production of lower aldehydes and 2,3-butandion from heated cacao powder; conditions: 1 g cacao powder in 4 ml of 2.5% saccharide solution; microwave, then 100° C. five minutes
Description: “Stuffy smell”, meaning a kind of foreign smell generated from cocoa, chocolate, and compositions thereof during their processes, is known to deteriorate their flavor. 2,3-Butandion and lower aldehydes are known as a causative substance of foreign smell. On the other hand, […], classified in lower aldehydes, is known as one of the aromatic ingredients of chocolates. To confirm the effect of saccharide derivatives of α,α-trehalose on inhibiting the production of such compounds, the following experiment was carried out. Four milliliters of 2.5%, on a dry solid basis, saccharide solution containing either of sucrose, “TREHA®” (an α,α-trehalose commercialized by Hayashibara Biochemical Laboratories, Inc., Okayama, Japan), a commercialized enzyme-treated starch syrup and a syrupy saccharide mixture containing saccharide derivatives of α,α-trehalose prepared in Example 1 (on a dry solid basis about 53% of saccharide derivatives of α,α-trehalose) was placed in a 20-ml vial and admixed with 1 g of cacao powder. The resulting vial was covered with a plastic warp and heated by a microwave oven (500 W) for five seconds. As a control, 4 ml of distilled water and 1 g of cacao powder were placed in the vial and treated similarly as in the saccharide solutions. These vials were sealed with a butyl gum cap over the plastic wrap and heated at 100° C. in a heat block for five minutes. Two milliliters of the resulting headspace gas was subjected to gas chromatography to measure the contents of lower aldehydes and 2,3-butandion according to the method in Experiment 5-4. The amount of total aldehydes was calculated by totalizing the measured amounts of three kinds of aldehydes and other aldehydes listed in Table 8.
The resulting value of the production of aldehydes or 2,3-butandion of each of the test samples was compared with the value of control defined as 100 to calculate the relative value of the production of them. And then, the relative rate of inhibiting the production of them was calculated by 100 minus the relative value.

| Structure (SMILES) | Relative rate of inhibiting the production of hydrogen sulfide [1] | Relative rate of inhibiting the production of dimethylamine [2] | Relative rate of inhibiting the production of trimethylamine [2] | Relative rate of inhibiting the production of total amine [2] | Relative rate of inhibiting the production of 2,3-butandion [3] | Relative rate of inhibiting the production of acetaldehyde [3] | Relative rate of inhibiting the production of isobutanal [3] | Relative rate of inhibiting the production of other aldehydes [3] | Relative rate of inhibiting the production of propanal [3] | Relative rate of inhibiting the production of total aldehydes [3] |
| --- | --- | --- | --- | --- | --- | --- | --- | --- | --- | --- |
| OC[C@H]1O[C@@](CO)(O[C@H]2O[C@H](CO)[C@@H](O)[C@H](O)[C@H]2O)[C@@H](O)[C@@H]1O [Sucrose, sucrose] | 14 | −34 | 12 | −8 | 95 | 44 | 52 | 0 | 43 | 48 |
| OC[C@H]1O[C@H](O[C@H]2O[C@H](CO)[C@@H](O)[C@H](O)[C@H]2O)[C@H](O)[C@@H](O)[C@@H]1O [α,α-Trehalose, α,α-trehalose] | 30 | 44 | 58 | 52 | 100 | 50 | 58 | 0 | 47 | 53 |
